Patent US12303518B2, “System for providing birth control” (The Population Council, Inc., priority 2019, dated 2025)
Like-named read-outs stand apart in the source and are kept apart here. One block for each compound: values may come before it.

How the values were obtained:
[1] = Pharmacokinetics of the vaginal system in 39 women over up to 13 product-use cycles; format: in vivo; design: concentration or dose not given beside the values; details: female, human, serum
Experimental: The pharmacokinetics (PK) of the vaginal system described herein were determined in 39 women who used the system for up to 13 product-use cycles. […] Over subsequent product-use cycles, the peak serum concentrations of SA and EE declined. Serum concentration-time profiles of SA and EE for product-pse cycles 1, 3, and 13 of system use are provided in FIG. 1 and FIG. 2 with PK parameters summarized in Table 8 and Table 9.

[2] = PK study in females with BMI<25 vs BMI>25 kg/m^2; format: in vivo, human; details: 18 females BMI<25 vs 21 females BMI>25 kg/m^2
Excerpt: The vaginal system described herein has not been adequately evaluated in females with a body mass index of >29 kg/m2. […] Higher body weight associates with lower systemic exposure of SA and EE. In a PK study conducted in 18 females with BMI<25 (16.89-24.34) kg/m^2 and 21 females with BMI>25 (25.15-37.46) kg/m^2, up to 16% and 33% decreases in the systemic exposure (AUC0-21day) of SA and EE, respectively, were observed between the two BMI groups.

[3] = Drug-drug interaction study with vaginal miconazole formulations; format: in vivo, human; details: concurrent water-based vaginal miconazole cream
Excerpt: However, the use of either the 1 day or the 3-day oil-based miconazole suppository was associated with an overall increase in exposure up to 67% for EE and 32% for SA. Considering the potential long-term effect on vaginal system performance, concurrent use of oil-based vaginal suppositories should not occur with the system's use. If there is a need to treat a vaginal condition, water-based vaginal cream or oral therapy may be used concurrently with the vaginal system.

SHBG = assay: Effect on serum concentrations of SHBG; details: in vivo
[4] = Recoverable SA and EE after storage; format: physicochemical; details: for amount recoverable from the vaginal system: 24 months of storage at 25° C. and 60% relative humidity
Experimental: This was quite surprising as a similar trend was not observed during long-term stability studies on the cores before assembly.
• Diluent: methanol/water 58/42 v/v • Dried NES and EE before weighing (100-105° C. 3 h) • EE stock solution: Dissolved 25.0 mg of EE and diluted to 250.0 mL with methanol (duplicates, EE1 and EE2) • NES stock solution: Dissolved 50.0 mg of NES and diluted to 100.0 mL with methanol (duplicates, NES1 and NES2) • Standard solutions: • S1: Diluted 5.0 mL of NES1 and 4.0 mL of EE1 to 50.0 mL with diluent • S2: Diluted 6.0 mL of NES2 and 5.0 mL of EE2 to 50.0 mL with diluent • S3: Diluted 8.0 mL of NES1 and 7.0 mL of EE1 to 50.0 mL with diluent • S4: Diluted 10.0 mL of NES2 and 9.0 mL of EE2 to 50.0 mL with diluent • System suitability solution (SST solution): Diluted 5.0 mL acetone+7.0 mL NES1+6.0 mL EE1 to 50.0 mL with diluent. Extraction Procedure: • Rings were cut into 8 pieces and each piece was divided lengthwise then transferred to an Erlenmeyer flask. • 140 mL of acetone (weight of flask was noted before and after acetone addition) was added to the flask. […] Liquid Chromatography Column • analytical column: Discovery C8, 5 μm, 150×4.6 mm (Supelco) • pre-column: Supelguard, Discovery C8, 5 μm, 20×4.0 mm (Supelco) • stationary phase: endcapped C8 (5 μm particle size) USP L7 • temperature: 30° C. • Mobile phase: methanol/water 58/42, isocratic elution • Flow rate: 1.2 mL/min • Detection (assay): NES UV 240 nm, EE UV 280 nm • Detection (identity): PDA (photodiode array detector) scanning 220-310 nm, NES 240 nm, EE 280 nm • Injection: 20 μL • Run time: 15 min • System suitability: SST solution • Area precision (n=5): RSD (%)≤2.0 • Peak tailing (T): 0.8≤T≤1.5 • Blank injections: No interfering peaks • Retention times: EE approximately 7 min and NES approximately 9 min • Results Assay: Report the average value of three different rings and express as mg EE/ring and mg NES/ring. • Results Content uniformity: Calculate the average value of ten different rings. […]

[5] = in vivo; cited from earlier work
[6] = target: T1, sex hormone-binding globulin (SHBG) (Homo sapiens, UniProt P04278); assay: Binding to sex hormone-binding globulin
T1 sequence (P04278 30-402): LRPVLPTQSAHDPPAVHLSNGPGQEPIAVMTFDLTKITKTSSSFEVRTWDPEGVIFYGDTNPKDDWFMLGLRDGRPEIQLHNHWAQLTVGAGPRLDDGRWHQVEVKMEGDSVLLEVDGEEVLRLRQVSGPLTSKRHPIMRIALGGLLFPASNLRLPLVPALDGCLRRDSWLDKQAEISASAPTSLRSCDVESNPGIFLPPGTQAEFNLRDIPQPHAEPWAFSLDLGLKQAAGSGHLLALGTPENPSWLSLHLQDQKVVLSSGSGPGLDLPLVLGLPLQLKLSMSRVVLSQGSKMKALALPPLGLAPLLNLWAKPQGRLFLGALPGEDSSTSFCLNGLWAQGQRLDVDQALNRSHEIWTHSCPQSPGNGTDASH

CYP enzymes = assay: In vitro CYP inhibition/induction studies; format: in vitro ADME; details: therapeutic dose
[7] = Solubility in solvents (descriptive); format: physicochemical; details: USP classification
Salmonella = assay: Ames/Salmonella reverse mutation assay; format: cell-based
[8] = test system: Chinese hamster ovary cells; assay: Chromosomal aberration assay; format: cell-based
mouse = assay: In vivo mouse micronucleus test
rats = assay: Return to fertility study in rats with subdermal implants; format: in vivo, rat; details: 7 weeks after cessation of treatment
Experimental: A return to fertility study was conducted with segesterone acetate in rats, using subdermal implants releasing a dose approximately 25 times the anticipated daily vaginal human dose (based on body surface area).

AUC(0-t) ([1]; Cycle 1, mean (SD), read-out: AUC0−1 day): 2.1 ng·h/mL
AUC(0-t) ([1]; Cycle 1, mean (SD), read-out: AUC0−21day): 22.2 ng·h/mL
AUC(0-t) ([1]; Cycle 3, mean (SD), read-out: AUC0−1 day): 0.9 ng·h/mL
AUC(0-t) ([1]; Cycle 3, mean (SD), read-out: AUC0−21day): 14.7 ng·h/mL
AUC(0-t) ([1]; Cycle 13, mean (SD), read-out: AUC0−1 day): 0.7 ng·h/mL
AUC(0-t) ([1]; Cycle 13, mean (SD), read-out: AUC0−21day): 9.6 ng·h/mL
decrease in systemic exposure (AUC0-21day) between the two BMI groups [2]: ≤ 33%
change in exposure from the vaginal system [3]: no change in exposure
amount recoverable from the vaginal system [4]: decreased in a time-dependent manner
SMILES: C#C[C@]1(O)CC[C@H]2[C@@H]3CCc4cc(O)ccc4[C@H]3CC[C@@]21C [EE, 19-nor-17α-pregna-1,3,5(10)-trien-20-yne-3,17-diol]
effect on serum concentrations of SHBG (SHBG): induces an increase in the serum concentrations of SHBG
amount recoverable from the core by extraction ([4]; cores before assembly, extended storage): full amount of EE was found to be recoverable
excretion route [5]: excreted in the urine and feces as glucuronide and sulfate conjugates
primary metabolic route [5]: primarily metabolized by aromatic hydroxylation

SMILES: C=C1C[C@H]2[C@@H]3CCC4=CC(=O)CC[C@@H]4[C@H]3CC[C@]2(C)[C@@]1(OC(C)=O)C(C)=O [SA, 16-methylene-17α-acetoxy-19-nor-pregn-4-ene-3,20-dione]
decrease in systemic exposure (AUC0-21day) between the two BMI groups [2]: up to 16%
change in exposure from the vaginal system [3]: no change in exposure
binding affinity for sex hormone-binding globulin (SHBG) [6]: negligible binding affinity
CYP enzyme inhibition or induction (CYP enzymes): unlikely to inhibit or induce CYP enzymes
solubility ([7]; acetone): freely soluble
solubility ([7]; ethyl acetate): soluble
solubility ([7]; methanol): soluble
solubility ([7]; n-hexane): slightly soluble
mutagenicity/clastogenicity (Salmonella): neither mutagenic nor clastogenic
mutagenicity/clastogenicity [8]: neither mutagenic nor clastogenic
mutagenicity/clastogenicity (mouse): neither mutagenic nor clastogenic
effects on ovulation or litter parameters (rats): no adverse effects on ovulation or resulting litter parameters
amount recoverable from the vaginal system [4]: remained essentially constant
